Assay results as given in patent US10675267B2, “Methods for detection and eradication of myeloid leukemia stem cells” (priority 2015, dated 2020).
Entries after “also recorded” stand apart in the source; their conditions may differ.

Experiments:
[1] = test system: CD34+ cells from normal aged bone marrow; test: SL/M2 stromal co-culture with colony and replating assays, normal bone marrow; format: cell-based, human; settings: normal aged bone marrow samples
Description: (§1) In hypothesis-driven experiments, the splicing modulatory compound 17S-FD-895 was tested to determine efficacy in altering splicing activity in cell lines, and to evaluate effects on AML LSC survival and self-renewal capacity in humanized bone marrow stromal co-cultures and in PRIMAGRAFT™ AML LSC models. Cell culture experiments were performed using 293T and sAML (MOLM-13) cell lines, and SL and M2 bone marrow stromal cell lines. Animal studies were performed using immunocompromised Rag2−/−γc−/−[20] or NOD/SCID-IL2RG mice (Jackson Laboratory, Bar Harbor, Me.). Primary AML and normal control samples were used in in vitro hematopoietic stem and progenitor assays after bone marrow stromal co-culture and treatment with splicing modulatory compounds (FD-895 or 17S-FD-895) or vehicle control (DMSO). Colony formation potential and self-renewal capacity were assessed by counting colony numbers (survival) after two weeks of growth in semi-solid (methylcellulose) media, and subsequent replating capacity (self-renewal) was assessed after transfer to fresh methylcellulose for an additional two weeks of culture. Three primary AML samples were utilized to establish PRIMAGRAFT™ models in immunocompromised mice, and mice engrafted with cells from two of these models (AML-37 and AML-08) were treated with 17S-FD-895 or vehicle (DMSO) to evaluate changes in AML LSC survival and self-renewal capacity in vivo. Data were collected by flow cytometry and qRT-PCR analysis of CD34-selected human LSC-enriched cells from engrafted mice.
Bone marrow SL/M2 monolayers were established from freshly inactivated (irradiated) cells and then human CD34^+ cells selected from AML primary samples (n=8) and normal controls (CD34^+ cells from cord blood, CB, n=6; or aged bone marrow, n=6) were added. Survival and self-renewal of the CD34+ cells were investigated by methylcellulose-based colony and replating assays. Two SF3B1-targeted splicing modulators, FD-895 or 17S-FD-895, were added at the initiation of co-culture at concentrations ranging from 0.1 to 10 μM.
As previously described (Goff et al., 2013), humanized bone marrow SL/M2 monolayers were inactivated (irradiated) and then human CD34^+ cells selected from AML primary samples and normal controls were added for two weeks of co-culture, followed by methylcellulose-based colony and replating assays. FD-895 or 17S-FD-895 were added at the initiation of co-culture, with DMSO as a vehicle control.

[2] = test system: CD34+ cells from normal cord blood; test: SL/M2 stromal co-culture with colony and replating assays, cord blood; format: cell-based, human; settings: even at high doses
Description: as §1, with “Three primary AML samples were utilized to establish PRIMAGRAFT™ models in immunocompromised mice, and mice engrafted with cells from two of these models (AML-37 and AML-08) were treated with 17S-FD-895 or vehicle (DMSO) to evaluate changes in AML LSC survival and self-renewal capacity in vivo. Data were collected by flow cytometry and qRT-PCR analysis of CD34-selected human LSC-enriched cells from engrafted mice.” left out

[3] = test system: human CD34+ cells from treated mice (DNAJB1, MCL1, BCL2, BCLX, SF3B1 transcripts); test: qRT-PCR / RT-PCR of in vivo splicing alterations in CD34-selected human cells from treated AML PRIMAGRAFT mice
Description: For in vivo treatments, a 10 mg/mL stock solution of 17S-FD-895 solubilized in DMSO was used. After randomization, AML-engrafted mice were dosed intravenously with 17S-FD-895 (5-10 mg/kg) or vehicle (for AML-08, vehicle control=15% DMSO in PBS; for AML-37, vehicle control=20% DMSO in PBS) three times over a two-week period, with the first dose given on day 1, the second on day 7, and the third on day 14. For preparation of RNA from human LSC-enriched populations, single cell suspensions from spleen and bone marrow were CD34 double-selected (over two LS selection columns, Miltenyi) and 1-2×10^5 cells were collected in lysis buffer or pooled according to treatment group for serial transplantation assays.
For qRT-PCR analysis of relative total mRNA expression levels or splice isoform-specific expression analyses, cDNA was synthesized using 50 ng-1 […] of template RNA in 20 μL reaction volumes using the First-Strand SUPERSCRIPT™ III Reverse Transcriptase Supermix (Life Technologies) followed by incubation with RNase H according to the manufacturer's protocol and as described previously. All cDNA products were stored at −20° C. Splice isoform-specific primers for PTK2B-202 were designed to bind to unique exon junctions for this transcript, which lacks exon 24. All primers (Table 2) were diluted to 10 μM working dilutions in DNase/RNase-free water. qRT-PCR was performed in duplicate using cDNA (1 μL reverse transcription product per reaction) on an iCycler (Bio-Rad, Hercules, Calif.) using SYBR® GREENER™ Super Mix (Life Technologies) in 25-μL volume reactions containing 0.2 μM of each forward and reverse primer. Cycling conditions were as follows: 50° C. for 2 minutes, then 95° C. for 8 minutes and 30 seconds, followed by 40 cycles of 95° C. for 15 seconds and 60° C. for 60 seconds. Melting curve analysis was performed on each plate according to the manufacturer's instructions. For standard qRT-PCR, human HPRT mRNA transcript levels were used to normalize Ct values obtained for each gene, and relative expression levels were calculated using the 2^−ddCt method. To ensure validity of results, only Ct values <35 were used in gene expression analyses. All primer sets were tested in a no-template control (NTC) reaction containing only water instead of cDNA, and all gave Ct values >35 in NTC reactions.
The 17S-FD-895 dosing regimen was selected as the maximum number of doses possible for the treatment of three experimental groups with the amount of synthesized compound that was available, and is consistent with weekly IV dosing regimens used in clinical trials of spliceosome inhibitory compounds in patients with solid tumors. Animals were euthanized within two hours after delivery of the final dose of 17S-FD-895, and peripheral blood, spleens and bone marrows were collected for analysis of total human cell and stem and progenitor cell engraftment, and for RNA extraction for splice isoform-specific qRT-PCR.
For qRT-PCR analysis of relative total mRNA expression levels or splice isoform-specific expression analyses, cDNA was synthesized using 50 ng-1 […] reaction volumes using the First-Strand SUPERSCRIPT™ III Reverse Transcriptase Supermix (Life Technologies) followed by incubation with RNase H according to the manufacturer's protocol and as described previously (Abrahamsson et al., 2009; Crews et al., 2015). All cDNA products were stored at −20° C. Splice isoform-specific primers for PTK2B-202 were designed to bind to unique exon junctions for this transcript, which lacks exon 24. All primers (Supplemental Experimental Procedures Table) were diluted to 10 ∝M working dilutions in DNase/RNase-free water. qRT-PCR was performed in duplicate using cDNA (1 ∝Λ reverse transcription product per reaction) on an iCycler (Bio-Rad, Hercules, Calif.) using SYBR® GREENER™ Super Mix (Life Technologies) in 25-∝A volume reactions containing 0.2 ∝M of each forward and reverse primer. […]

[4] = CD34+ cells of individual treated mice versus vehicle
[5] = pooled CD34+ cells used for serial transplantation

## CC[C@H](OC)[C@@H](C)[C@H]1O[C@@H]1[C@@H](O)[C@H](C)/C=C/C=C(\C)[C@H]1OC(=O)C[C@H](O)CC[C@@](C)(O)[C@@H](OC(C)=O)/C=C/[C@@H]1C (stereo in doubt) [Formula 17S-FD-895, 17S-FD-895]
[1]
  erythroid colony formation and self-renewal: not significantly changed; also recorded: no effect on erythroid colonies
  granulocyte-macrophage (myeloid) colony survival: slight decrease; also recorded: reduces myeloid colony formation
[2]
  normal CB samples, survival and self-renewal: unaffected
[3]; CD34+ cells of individual treated mice versus control
  BCL2L1-L/S expression ratio: significant reduction
[3]; [4]
  BCL2-L/S expression ratio: significant reduction
  MCL1-L/S expression ratio: significant reduction
[3]; after treatment, individual mice and pooled samples
  SF3B1 mRNA expression: unchanged
[3]; human CD34+ cells from treated mice versus vehicle
  DNAJB1 intron 2 expression / retention: increased DNAJB1 intron 2 expression; also recorded: increased DNAJB1 intron 2 retention
[3]; [5]
  MCL1-L/S expression ratios, pooled cells: dramatically reduced; also recorded: significantly reduced
  MCL1 exon 1-3 splicing pattern (RT-PCR): MCL1 exon skipping and intron inclusion
